# Measured values from article PMC3758320, “Fate of Ingested Clostridium difficile Spores in Mice” (PLoS ONE, 2013).
# Experiments:
# [1] = Caco-2 permeability assay; conditions: human, Caco-2
# [2] = system: C. difficile spores; parameters: method as in PMID 23420906; conditions: single 50 mg/kg dose; without any observable toxicity; cited from earlier work
# [3] = system: C. difficile; experiment: Effect on bacterial growth (C. difficile vegetative cells); type: cell-based; conditions: 10 mM in growth medium, OD580 over 8 hours
# Experimental: (§1) Laboratory strains of E. coli DH5α, B. longum, L. gasseri, and C. difficile were individually inoculated from freezer stock onto appropriate agar medium as directed by ATCC. Plates were incubated overnight at 37°C either aerobically (L. gasseri and E. coli) or anaerobically (C. difficile and B. longum). Anaerobic conditions consisted of a 5% CO2, 10% H2, and 85% N2 environment. Single cell clones were carefully selected and used to inoculate 5 mL of liquid medium. Inoculated broth was shaken at 37°C for approximately four hours until optical density at 580 nm reached 0.8 representing exponential phase of growth. […] An increase of optical density at 580 nm (OD580) was used to measure exponential bacterial growth. The OD580 was recorded at 0, 1, 2, 3, 4, 6, and 8 hours post subculture inoculation. Growth inhibition was determined by comparing optical density of bile salt-treated cultures with untreated control cultures.
# [4] = system: Vero cells; experiment: C. difficile toxin-induced cell death (spent media on Vero cells); type: cell-based; conditions: 200 µM; Vero cells exposed 24 hours
# Experimental: C. difficile strain 630 spores were washed five times with nanopure water, heat activated at 68°C for 30 minutes and washed five more times with water. Spore pellets were resuspended in 0.1 M sodium phosphate buffer supplemented with 0.5% sodium bicarbonate (pH 6.0) to an OD580 of 1.0. […] Spore suspensions were incubated anaerobically at 37°C overnight. The following day, C. difficile cells and spores were removed by centrifugation and spent media filter sterilized. In parallel, Vero and Caco-2 cells were cultured in 96-well plates, as described above. The mammalian cell cultures were then exposed to varying concentrations of sterile spent media for 24 hours. Cell viability was determined as before with the CellTiter Glo viability kit. The luminescence signals from cell cultures supplemented with 0% spent media were set as 100% cell viability. Percent survival for other conditions was calculated relative to these untreated cells.
# [5] = system: E. coli; experiment: Stability after incubation with E. coli cultures; conditions: 24 hour incubation
# [6] = system: C. difficile spores; experiment: Onset of CDI signs in mice (timing of dosage); type: in vivo, C57BL/6N mice
# Experimental: Antibiotic treated mice were challenged by oral gavage with 10^8 CFUs of C. difficile strain 630 spores. Individual groups of five mice were treated with a single 300 mg/kg dose of CamSA at 0, 6, 9 or 12 hours post-spore challenge. A second 300 mg/kg dose of CamSA was administered 24 hours after the first dose.
# [7] = system: E. coli; experiment: Effect on bacterial growth (E. coli); type: cell-based, E. coli DH5α; conditions: 10 mM in growth medium, OD580 over 8 hours
# Experimental: as §1
# [8] = system: mice; experiment: Acute toxicity in mice (Fixed Dose Procedure); conditions: oral gavage, three consecutive days, doses up to saturating 300 mg/kg
# Experimental: (§5) CamSA was dissolved in DMSO to a concentration of 100 mg/ml. […] A control group was administered DMSO.
# [9] = system: C. difficile spores; experiment: Enumeration of C. difficile vegetative cells and spores in GI contents and feces of treated mice; type: in vivo, C57BL/6N mice
# Experimental: Cages from infected animals were changed and feces were collected at different time points. Selected animals were sacrificed at different time points and their GI tract observed for signs of disease. Gastrointestinal tracts were removed in blocks and GI tract contents were flushed with autoclaved water. Feces and intestinal contents were weighed and homogenized in autoclaved water. Aliquots of the fecal suspensions were heated to 68°C for 30 minutes. Heated and unheated feces and GI tract contents were serially diluted in water and plated on Clostridium difficile selective agar (CDSA). Plates were incubated anaerobically for 48 hours and colonies were counted to enumerate colony-forming units (CFUs). CFUs obtained from unheated samples represent the sum of C. difficile vegetative cells and spores. CFUs obtained from heated samples represent the number of C. difficile spores only. The presence of C. difficile was verified by PRO disk.
# [10] = Stability in artificial gastric juice; type: in vitro ADME; conditions: 24 hours incubation, 37°C, TLC
# Experimental: (§2) CamSA was analyzed for stability in simulated gastric and intestinal juices as published. Briefly, 100 mg CamSA was added to 1 ml of either artificial intestinal or artificial gastric juice and incubated at 37°C. Aliquots were taken at 4, 8, 12, and 24 hours. Samples (1 µl) were spotted on silica TLC plates and allowed to air dry. Plates were developed with 75% ethyl acetate/methanol. TLC plates were visualized by spraying with a 10% wt/vol phosphomolybdic acid (PMA)/ethanol solution followed by heating at 100°C for 2 minutes. Quantification of CamSA was determined using a GE Healthcare Typhoon 9410 Variable Mode Imager and analyzed using ImageQuant TL 5.2 software.
# [11] = Stability in growth medium alone; type: in vitro ADME
# Experimental: Following previous procedures, Escherichia coli DH5α, Bifidobacterium longum (ATCC BAA-999) and Lactobacillus gasseri (ATCC 33323) were incubated for 24 hours at 37°C. […] Samples of spent media were taken at 4, 8, 12, and 24 hours. Bile salt concentration was monitored by TLC as above. Percent conjugated bile salts were derived by dividing the intensity of TLC spots obtained at different times by the intensity of the TLC spot obtained before incubation.
# [12] = system: B. longum; experiment: Stability after incubation with BSH-producing bacteria (B. longum); conditions: 24 hours, 6 mM bile salt
# [13] = system: L. gasseri; experiment: Stability after incubation with BSH-producing bacteria (L. gasseri); conditions: 24 hours, 6 mM bile salt
# [14] = system: Vero cells; experiment: Cytotoxicity in Vero cells; type: cell-based; conditions: overnight
# Experimental: (§3) Vero cells, Caco-2 cells, and murine macrophages J774A.1 were seeded in complete medium (minimum essential medium (MEM), 10% fetal bovine serum (FBS), and 1% penicillin/streptomycin). Cells were grown at 37°C with 5% CO2. Cells were detached by incubation with 1 mM EDTA-trypsin for 5 minutes. Complete medium was then added and monolayers lifted with a cell scraper. Cells were recovered at 800×g for 5 minutes at room temperature and the cell pellet was resuspended in fresh complete medium. A sample of cell suspension was treated with trypan blue to determine background non-viable cells. […]
# (§4) The 12-well plates containing cell cultures were used as a qualitative method to determine cytotoxicity by visual observation of morphological changes, such as cell rounding. Cell viability was also determined by trypan blue dye exclusion staining. The 96-well plates cultured with mammalian cells were used as a quantitative method to determine cytotoxicity using the CellTiter Glo Luminescent cell viability assay. This assay quantitates the concentration of ATP, which indicates metabolically active cells. […] Luminescence was read with an integration time of 1 second per well using a Tecan Infinite 200 plate reader and iControl software. The luminescence signals from cell cultures supplemented with DMSO only were set as 100% cell viability. […]
# [15] = system: Caco-2 cells; experiment: Cytotoxicity in Caco-2 cells; type: cell-based; conditions: overnight
# Experimental: as §3, §4
# [16] = system: murine macrophages J774A.1; experiment: Cytotoxicity in murine macrophages J774A.1; type: cell-based; conditions: macrophage cells, overnight
# Experimental: as §3, §4
# [17] = system: C. difficile spores; experiment: Outgrowth of C. difficile spores in germination medium; type: cell-based, C. difficile strain 630; conditions: 200 µM in medium, overnight
# [18] = system: C. difficile spores; experiment: Prevention of CDI by bile salt analogs in mice challenged with C. difficile spores; type: in vivo, C57BL/6N mice; conditions: for CDI signs: mice challenged with 10^8 CFU C. difficile spores, three doses
# [19] = system: L. gasseri; type: cell-based
# [20] = system: B. longum; type: cell-based
# [21] = system: Caco-2 cell monolayer; experiment: Caco-2 permeability assay
# [22] = Stability in artificial intestinal juice; type: in vitro ADME; conditions: 24 hours incubation, 37°C, TLC
# Experimental: as §2
# [23] = system: mice; conditions: mouse, in vivo, po
# Experimental: as §5
# [24] = system: C. difficile spore germination; parameters: method as in PMID 21478359; conditions: in vitro; read-out: IC50, inhibition of C. difficile spore germination; cited from earlier work
# [25] = 300 mg/kg given at 9 or 12 hours post-challenge
# [26] = Caco-2, 10 µM, 2 hour incubation
smiles,measurement,setting,value
CNC(=C[N+](=O)[O-])NCCSCc1ccc(CN(C)C)o1 [Ranitidine],"Papp A→B at 2 h, 10 µM",[1],0.3 ×10⁻⁶ cm/s
same,"Papp at 2 h, 10 µM",[1],< 0.5 ×10⁻⁶ cm/s
same,"efflux ratio at 2 h, 10 µM",[1],5.3
CC(=O)CC(c1ccccc1)c1c(O)c2ccccc2oc1=O (centres unmarked) [Warfarin],"Papp A→B at 2 h, 10 µM",[1],42.9 ×10⁻⁶ cm/s
same,"Papp B→A at 2 h, 10 µM",[1],16 ×10⁻⁶ cm/s
same,"Papp at 2 h, 10 µM",[1],> 5 ×10⁻⁶ cm/s
same,"efflux ratio at 2 h, 10 µM",[1],0.4
C[C@H](CCC(=O)Nc1cccc(S(=O)(=O)O)c1)[C@H]1CC[C@H]2[C@@H]3[C@H](O)C[C@@H]4C[C@H](O)CC[C@]4(C)[C@H]3C[C@H](O)[C@]12C [CamSA],prevention of CDI in mice,[2],prevented CDI
same,growth of C. difficile cells,[3],grew normally
same,cell killing by spent media from treated bacterial cultures,[4],less effective at killing epithelial cells
same,stability in E. coli cultures,[5],stable
same,CDI outcome,[6]; [25],developed severe CDI
same,time to clinical endpoint post infection,[6]; [25],48 h
same,protection from CDI,[6]; 300 mg/kg given up to 6 hours post-challenge,fully protected from CDI
same,growth of E. coli,[7],unaffected
same,physical adverse effects or weight loss,[8],No physical adverse effects or weight loss
same,C. difficile vegetative cells in feces compared to spore counts,[9]; mice treated with 50 mg/kg,< 10%
same,C. difficile content of feces,[9]; treated mice,almost exclusively spores
same,spores recovered from the cecum and colon,"[9]; treated mice, before the decrease (up to 72 hours after spore challenge)",greater than 12×10^5 CFUs
same,spores recovered from the cecum and colon,"[9]; treated mice, by 96 hours after spore challenge",less than 2×10^5 CFUs
same,duration of excretion of ingested C. difficile spores post-challenge,"[9]; treated mice, feces",at least 96 hours
same,start of excretion of ingested C. difficile spores post-challenge,"[9]; treated mice, feces",2 h
same,degradation in artificial gastric juice,[10],No degradation
same,degradation in growth medium alone,[11],not degraded
same,hydrolysis to cholic acid by B. longum culture,[12],hydrolyzed to cholic acid at similar rates
same,fraction hydrolyzed to cholic acid by L. gasseri culture,[13],Less than 30%
same,"cell viability, visual observation and trypan blue staining",[14],appeared healthy
same,"cell viability, visual observation and trypan blue staining",[15],appeared healthy
same,"cell viability, visual observation and trypan blue staining",[16],appeared healthy
same,bacterial growth from C. difficile spores,[17],reduced but not eliminated
same,CDI signs,[18]; 50 mg/kg oral gavage,no sign of CDI
same,CDI signs,[18]; 300 mg/kg oral gavage,no sign of CDI
same,time without signs of CDI post-challenge,"[18]; treated, spore-challenged mice",≥ 14 days
same,growth of L. gasseri,[19],unaffected
same,growth of B. longum,[20],unaffected
same,Comment: efflux,"[21]; 10 µM, two hours",Efflux substrate
same,Comment: permeability ranking,"[21]; 10 µM, two hours",Low (Low (Papp < 0.5))
same,Efflux Ratio,"[21]; 10 µM, two hours, >2 indicates significant efflux activity",>2
same,apical to basolateral apparent permeability coefficient (Papp),[21]; [26],< 10^−6 cm/s
same,basolateral to apical Papp,[21]; [26],10.9 ×10⁻⁶ cm/s
same,recovery,[21]; both A→B and B→A assays,100%
same,degradation in artificial intestinal juice,[22],No degradation
C[C@H](CCC(=O)O)[C@H]1CC[C@H]2[C@@H]3[C@H](O)C[C@@H]4C[C@H](O)CC[C@]4(C)[C@H]3CC[C@]12C [chenodeoxycholate],observable side effects,[23]; 50 mg/kg,did not cause any observable side effects
same,acute toxicity outcome,[23]; 300 mg/kg,immediate death
same,delay of CDI onset,[18]; 50 mg/kg,24 h
same,CDI signs,[18]; 50 mg/kg oral gavage,moderate to severe signs of CDI
same,IC50,[24],235 µM
